In US20220396569A1 (Carmot Therapeutics, Inc., priority 2021, published 2022):

target: T1, human GLP-1 receptor (Homo sapiens, UniProt P43220); assay: GLP-1R cAMP Assay (HitHunter cAMP accumulation); format: cell-based; conditions: cAMP accumulation, CHO cells stably overexpressing human GLP-1 receptor, 30 min treatment; read-out: EC50
T1 construct: expressed in transfected cells
Method: cAMP accumulation was measured in Chinese hamster ovary (CHO) cells stably overexpressing the human GLP-1 receptor using the HitHunter cAMP Assay for Small Molecules Kit (Eurofins). Briefly, cells were grown in Ham's F12 Nutrient Mix with 10% FBS, and lifted with Cell Dissociation Buffer, Enzyme free, PBS based (ThermoFisher). Cells were pelleted, and resuspended in Hank's buffered saline solution with 10 mM HEPES, and 625 μM 3-isobutyl-1-methylxanthine. The anti-cAMP antibody reagent was then added to cells at a 1:2 ratio and 5 μL of mixture was seeded in 384-well small volume white assay plates, at 10,000 cells/well. Cells were then treated with 50 nL compound using an ECHO 550 acoustic dispenser (Labcyte) in a 20-point dose response format in triplicate for 30 min. Cells were then lysed, and detection reagents added according to the manufacturer's protocol. After overnight incubation, luminescence was measured using a Perkin Elmer Envision plate reader. Dose response curves were analyzed using GraphPad Prism 9.0. […]

T1 sequence (P43220 24-463): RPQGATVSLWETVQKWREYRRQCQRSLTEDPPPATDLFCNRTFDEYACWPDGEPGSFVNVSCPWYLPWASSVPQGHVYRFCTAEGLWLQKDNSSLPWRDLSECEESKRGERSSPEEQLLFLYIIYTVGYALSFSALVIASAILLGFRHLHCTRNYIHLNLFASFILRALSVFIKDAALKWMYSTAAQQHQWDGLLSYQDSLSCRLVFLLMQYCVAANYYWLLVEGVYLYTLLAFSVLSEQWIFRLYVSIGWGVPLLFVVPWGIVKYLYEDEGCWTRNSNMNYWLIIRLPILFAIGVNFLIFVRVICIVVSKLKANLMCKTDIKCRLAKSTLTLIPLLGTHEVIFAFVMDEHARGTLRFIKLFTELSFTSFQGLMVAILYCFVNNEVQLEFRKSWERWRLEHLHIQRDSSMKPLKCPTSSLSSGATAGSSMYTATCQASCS

SMILES	EC50 [nM]
O=C(O)c1ccc2nc(CN3CCC(c4cc(COc5ccc(Cl)cc5Cl)ccn4)C3)n(C[C@@H]3CCO3)c2c1 (some centres unmarked) [Compound 391]	< 50
N#Cc1ccc(OCc2nc(C3=CCN(Cc4nc5c(F)cc(C(=O)O)cc5n4C[C@@H]4CCO4)C3)ccc2F)c(F)c1 [Compound 421, 2-[(3-{6-[(4-cyano-2-fluorophenoxy)methyl]-5-fluoropyridin-2-yl}-2,5-dihydro-1H-pyrrol-1-yl)methyl]-4-fluoro-1-{[(2S)-oxetan-2-yl]methyl}-1H-1,3-benzodiazole-6-carboxylic acid]	< 50
N#Cc1ccc(OCc2nc([C@@H]3C[C@@H](CF)N(Cc4nc5ccc(C(=O)O)cc5n4C[C@@H]4CCO4)C3)ccc2F)c(F)c1 (single isomer, unassigned) [Compound 526]	50 to 500
N#Cc1ccc(OCc2nc(C3=CCN(Cc4nc5c(F)cc(C(=O)O)cc5n4CC4(CC(N)=O)CC4)C3)ccc2F)c(F)c1 [Compound 425, 1-{[1-(carbamoylmethyl)cyclopropyl]methyl}-2-[(3-{6-[(4-cyano-2-fluorophenoxy)methyl]-5-fluoropyridin-2-yl}-2,5-dihydro-1H-pyrrol-1-yl)methyl]-4-fluoro-1H-1,3-benzodiazole-6-carboxylic acid]	50 to 500
N#Cc1ccc(OCc2cc([C@H]3CCN(Cc4nc5ccc(C(=O)O)cc5n4C[C@@H]4CCO4)C3)ccc2F)c(F)c1 [Compound 439, 2-{[(3R)-3-{3-[(4-cyano-2-fluorophenoxy)methyl]-4-fluorophenyl}pyrrolidin-1-yl]methyl}-1-{[(2S)-oxetan-2-yl]methyl}-1H-1,3-benzodiazole-6-carboxylic acid]	50 to 500
N#Cc1cc(Cl)ccc1OCc1cccc(OC2CN(Cc3nc4ccc(C(=O)O)cc4n3C[C@@H]3CCO3)C2)c1 [Compound 194]	< 50
CCn1cncc1Cn1c(CN2CC(Oc3ccnc(COc4ccc(Cl)cc4Cl)c3)C2)nc2ccc(C(=O)O)cc21 [Compound 218, 2-{[3-({2-[(2,4-dichlorophenoxy)methyl]pyridin-4-yl}oxy)azetidin-1-yl]methyl}-1-[(1-ethyl-1H-imidazol-5-yl)methyl]-1H-1,3-benzodiazole-6-carboxylic acid]	< 50
O=C(O)c1ccc2nc(CN3CC=C(c4ccnc(COc5ccc(Cl)cc5Cl)c4)C3)n(C[C@@H]3CCO3)c2c1 [Compound 402, 2-[(3-{2-[(2,4-dichlorophenoxy)methyl]pyridin-4-yl}-2,5-dihydro-1H-pyrrol-1-yl)methyl]-1-{[(2S)-oxetan-2-yl]methyl}-1H-1,3-benzodiazole-6-carboxylic acid]	< 50
N#Cc1ccc(OCc2ccc(F)c(C3CCN(Cc4nc5c(F)cc(C(=O)O)cc5n4C[C@@H]4CCO4)C3)n2)c(F)c1 (stereo partly drawn) [Compound 521, 2-[(3-{6-[(4-cyano-2-fluorophenoxy)methyl]-3-fluoropyridin-2-yl}pyrrolidin-1-yl)methyl]-4-fluoro-1-{[(2S)-oxetan-2-yl]methyl}-1H-1,3-benzodiazole-6-carboxylic acid]	< 50
CCn1cncc1Cn1c(CN2CC(=Cc3ccnc(COc4ccc(Cl)cc4C#N)c3)C2)nc2ccc(C(=O)O)cc21 [Compound 226, 2-{[3-({2-[(4-chloro-2-cyanophenoxy)methyl]pyridin-4-yl}methylidene)azetidin-1-yl]methyl}-1-[(1-ethyl-1H-imidazol-5-yl)methyl]-1H-1,3-benzodiazole-6-carboxylic acid]	< 50
O=C(O)c1ccc2nc(CN3CC[C@H](c4ccc(F)c(COc5ccc(Cl)cc5F)c4)C3)n(C[C@@H]3CCO3)c2c1 [Compound 448, 2-{[(3R)-3-{3-[(4-chloro-2-fluorophenoxy)methyl]-4-fluorophenyl}pyrrolidin-1-yl]methyl}-1-{[(2S)-oxetan-2-yl]methyl}-1H-1,3-benzodiazole-6-carboxylic acid]	50 to 500
CCn1cncc1Cn1c(Cc2ccc(Oc3cccc(COc4ccc(C#N)cc4F)n3)cc2F)nc2ccc(C(=O)O)cc21 [Compound 461, 2-{[4-({6-[(4-cyano-2-fluorophenoxy)methyl]pyridin-2-yl}oxy)-2-fluorophenyl]methyl}-1-[(1-ethyl-1H-imidazol-5-yl)methyl]-1H-1,3-benzodiazole-6-carboxylic acid]	< 50
N#Cc1ccc(OCc2nccc(Oc3cc(F)c(Cc4nc5c(F)cc(C(=O)O)cc5n4C[C@@H]4CCO4)cc3F)n2)c(F)c1 [Compound 470, 2-{[4-({2-[(4-cyano-2-fluorophenoxy)methyl]pyrimidin-4-yl}oxy)-2,5-difluorophenyl]methyl}-4-fluoro-1-{[(2S)-oxetan-2-yl]methyl}-1H-1,3-bcnzodiazole-6-carboxylic acid]	< 50
O=C(O)c1ccc2nc(CN3CC(=Cc4cccc(COc5ccc(Cl)cc5Cl)c4)C3)n(C[C@@H]3CCO3)c2c1 [Compound 195]	< 50
CCn1cncc1Cn1c(CN2CC(Cc3ccnc(COc4ccc(Cl)cc4Cl)c3)C2)nc2ccc(C(=O)O)cc21 [Compound 176, 2-{[3-({2-[(2,4-dichlorophenoxy)methyl]pyridin-4-yl}methyl)azetidin-1-yl]methyl}-1-[(1-ethyl-1H-imidazol-5-yl)methyl]-1H-1,3-benzodiazole-6-carboxylic acid]	< 50
CCn1cncc1Cn1c(Cc2ccc(Oc3cccc(COc4ccc(Cl)cc4F)n3)cc2F)nc2ccc(C(=O)O)cc21 [Compound 463, 2-{[4-({6-[(4-chloro-2-fluorophenoxy)methyl]pyridin-2-yl}oxy)-2-fluorophenyl]methyl}-1-[(1-ethyl-1H-imidazol-5-yl)methyl]-1H-1,3-benzodiazole-6-carboxylic acid]	< 50
N#CCC1(Cn2c(CN3CC[C@@H](c4ccnc(COc5ccc(Cl)cc5F)c4)C3)nc3ccc(C(=O)O)cc32)CC1 [Compound 431, 2-{[(3S)-3-{2-[(4-chloro-2-fluorophenoxy)methyl]pyridin-4-yl}pyrrolidin-1-yl]methyl}-1-{[1-(cyanomethyl)cyclopropyl]methyl}-1H-1,3-benzodiazole-6-carboxylic acid]	< 50
CCn1cncc1Cn1c(CN2CCC(Cc3cccc4c3O[C@@](C)(c3ccc(Cl)cc3F)O4)CC2)nc2ccc(C(=O)O)cc21 (single isomer, unassigned) [Compound 223]	< 50

Further lines, results first:

EC50 [nM]	SMILES
< 50	N#Cc1ccc(OCc2nc(C3C[C@H](CF)N(Cc4nc5ccc(C(=O)O)cc5n4C[C@@H]4CCO4)C3)ccc2F)c(F)c1 (mixture of isomers) [Compound 528, 2-(((2R)-4-(6-((4-Cyano-2-fluorophenoxy)methyl)-5-fluoropyridin-2-yl)-2-(fluoromethyl)pyrrolidin-1-yl)methyl)-1-(((S)-oxetan-2-yl)methyl)-1H-benzo[d]imidazole-6-carboxylic acid]
< 50	C[C@H]1[C@@H](Oc2ccnc(COc3ccc(Cl)cc3F)n2)CN1Cc1nc2ccc(C(=O)O)cc2n1C[C@@H]1CCO1 [Compound 547, 2-{[(2S,3S)-3-({2-[(4-chloro-2-fluorophenoxy)methyl]pyrimidin-4-yl}oxy)-2-methylazetidin-1-yl]methyl}-1-{[(2S)-oxetan-2-yl]methyl}-1H-1,3-benzodiazole-6-carboxylic acid]
> 500	N#Cc1ccc(OCc2nc(N3CCN(Cc4nc5ccc(C(=O)O)cc5n4C[C@@H]4CCO4)C3=O)ccc2F)c(F)c1 [Compound 535, (S)-2-((3-(6-((4-Cyano-2-fluorophenoxy)methyl)-5-fluoropyridin-2-yl)-2-oxoimidazolidin-1-yl)methyl)-1-(oxetan-2-ylmethyl)-1H-benzo[d]imidazole-6-carboxylic acid]
< 50	O=C(O)c1cc(F)c2nc(Cc3ccc(Oc4ccnc(COc5ccc(Cl)cc5F)c4)cc3F)n(C[C@@H]3CCO3)c2c1 [Example 459, (S)-2-(4-((2-((4-Chloro-2-fluorophenoxy)methyl)pyridin-4-yl)oxy)-2-fluorobenzyl)-4-fluoro-1-(oxetan-2-ylmethyl)-1H-benzo[d]imidazole-6-carboxylic acid]
< 50	N#Cc1ccc(OCc2cc(Oc3ccc(Cc4nc5c(F)cc(C(=O)O)cc5n4C[C@@H]4CCO4)c(F)c3)ccn2)c(F)c1 [Compound 537, 2-{[4-({2-[(4-cyano-2-fluorophenoxy)methyl]pyridin-4-yl}oxy)-2-fluorophenyl]methyl}-4-fluoro-1-{[(2S)-oxetan-2-yl]methyl}-1H-1,3-benzodiazole-6-carboxylic acid]
< 50	CCn1cncc1Cn1c(CN2CC(Cc3cccc(COc4ccc(Cl)cc4Cl)c3)C2)nc2ccc(C(=O)O)cc21 [Example 197, 2-((3-(3-((2,4-Dichlorophenoxy)methyl)benzyl)azetidin-1-yl)methyl)-1-((1-ethyl-1H-imidazol-5-yl)methyl)-1H-benzo[d]imidazole-6-carboxylic acid]
< 50	N#Cc1ccc(OCc2nc([C@]34C[C@H]3CN(Cc3nc5c(F)cc(C(=O)O)cc5n3C[C@@H]3CCO3)C4)ccc2F)c(F)c1 [Compound 532, 2-{[(lR,5R)-1-{6-[(4-cyano-2-fluorophenoxy)methyl]-5-fluoropyridin-2-yl}-3-azabicyclo[3.1.0]hexan-3-yl]methyl}-4-fluoro-1-{[(2S)-oxetan-2-yl]methyl}-1H-1,3-benzodiazole-6-carboxylic acid]
< 50	N#Cc1ccc(OCc2nc([C@@]34C[C@@H]3CN(Cc3nc5c(F)cc(C(=O)O)cc5n3C[C@@H]3CCO3)C4)ccc2F)c(F)c1 [Compound 531, 2-{[(1S,5S)-1-{6-[(4-cyano-2-fluorophenoxy)methyl]-5-fluoropyridin-2-yl}-3-azabicyclo[3.1.0]hexan-3-yl]methyl}-4-fluoro-1-{[(2S)-oxetan-2-yl]methyl}-1H-1,3-benzodiazole-6-carboxylic acid]
